Tests used:
D5 = D5 (Homo sapiens, UniProt P21918); test: D5R β-arrestin recruitment assay (DiscoverX PathHunter, CHO cells); format: cell-based; set-up: host or cells: CHO-K1; details: for Dopamine D5-β-arrestin Assay: DA + 50 μM PAM, Fold Change EC50: Table 6; for Dopamine D5-β-arrestin Assay: DA + 50 μM PAM, Fold Change EC50 / PAM activity at the D5 receptor / fold change of dopamine EC50 for β-arrestin recruitment to D5R: 50 μM compound; for DA + 50 μM PAM, Fold Change EC50: fold change of DA EC50 with 50 μM PAM, Dopamine D5-β-arrestin Assay; for D5 Beta-Arrestin: DA + 50 μM PAM, Fold Change EC50: fold change of dopamine EC50, 50 μM compound
Description: (§1) β-arrestin Recruitment Assay. […] Following 18-24 h of incubation, the cells were treated with the indicated concentrations of compound in PBS buffer containing 0.2 mM sodium metabisulfite, and incubated at 37° C. for 90 min. DiscoverX reagent was added to cells according to the manufacturer's protocol, followed by a 60 min incubation in the dark at room temperature. Luminescence was measured on a Hamamatsu FDSS μ-Cell reader (Hamamatsu, Bridgewater, N.J.) and data were collected using the FDSS software.
Each PAM was also examined in the absence of DA as an agonist, as indicated.

human D1R = human D1R (Homo sapiens, UniProt P21728); test: D1R β-arrestin recruitment assay (DiscoverX PathHunter, CHO-K1 cells); details: for Dopamine D1-β-arrestin Assay: DA + 50 μM PAM, Fold Change EC50: Table 5, 50 μM compound; for DA + 50 μM PAM, Fold Change EC50: fold change of DA EC50 with 50 μM PAM, Dopamine D1-β-arrestin Assay
D4R = molecular target: T1, D4R (Homo sapiens, UniProt P21917); test: D4 β-arrestin recruitment assay (DiscoverX PathHunter, CHO-K1 cells); format: cell-based; set-up: inferred from the same PathHunter system described for D1R and D5R; host or cells: CHO-K1; details: for Dopamine D4-β-arrestin Assay: DA + 50 μM PAM, Fold Change EC50: Table 7, 50 μM compound; for DA + 50 μM PAM, Fold Change EC50: fold change of DA EC50 with 50 μM PAM, Dopamine D4-β-arrestin Assay; for D4 Beta-Arrestin: DA + 50 μM PAM, Fold Change EC50: fold change of dopamine EC50, 50 μM compound
T1 sequence (P21917 1-419): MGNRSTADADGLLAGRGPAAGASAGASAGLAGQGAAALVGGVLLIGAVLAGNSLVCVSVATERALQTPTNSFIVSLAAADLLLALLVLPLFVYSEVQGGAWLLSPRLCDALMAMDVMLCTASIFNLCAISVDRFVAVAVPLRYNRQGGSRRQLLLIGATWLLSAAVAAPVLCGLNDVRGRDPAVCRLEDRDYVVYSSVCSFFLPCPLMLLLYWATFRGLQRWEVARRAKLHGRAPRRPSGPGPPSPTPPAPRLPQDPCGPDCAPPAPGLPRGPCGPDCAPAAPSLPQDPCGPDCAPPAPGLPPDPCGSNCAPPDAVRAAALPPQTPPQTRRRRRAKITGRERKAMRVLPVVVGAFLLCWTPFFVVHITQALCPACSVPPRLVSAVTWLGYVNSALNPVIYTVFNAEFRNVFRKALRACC
Description: as §1, with “Assay. Agonist-mediated recruitment of β-arrestin-2 to all five DARs was determined using the DiscoveRx PathHunter complementation assay (DiscoverX Inc, Fremont, Calif.), as previously described (Free, et. al., 2014; Conroy, et. al., 2015).” for “Assay.”

human D1R, sequence (P21728 whole entry): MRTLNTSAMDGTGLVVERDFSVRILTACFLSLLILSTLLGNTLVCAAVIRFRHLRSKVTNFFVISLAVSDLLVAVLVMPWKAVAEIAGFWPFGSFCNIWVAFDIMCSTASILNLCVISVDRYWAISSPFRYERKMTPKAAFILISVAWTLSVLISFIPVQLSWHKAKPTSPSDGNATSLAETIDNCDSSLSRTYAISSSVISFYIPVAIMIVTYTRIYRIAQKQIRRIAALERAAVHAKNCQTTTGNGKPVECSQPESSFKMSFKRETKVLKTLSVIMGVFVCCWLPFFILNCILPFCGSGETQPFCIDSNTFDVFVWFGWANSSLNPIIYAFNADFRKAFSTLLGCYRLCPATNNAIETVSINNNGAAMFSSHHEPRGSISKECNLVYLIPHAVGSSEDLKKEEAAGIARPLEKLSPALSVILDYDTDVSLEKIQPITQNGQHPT
D5, sequence (P21918 whole entry): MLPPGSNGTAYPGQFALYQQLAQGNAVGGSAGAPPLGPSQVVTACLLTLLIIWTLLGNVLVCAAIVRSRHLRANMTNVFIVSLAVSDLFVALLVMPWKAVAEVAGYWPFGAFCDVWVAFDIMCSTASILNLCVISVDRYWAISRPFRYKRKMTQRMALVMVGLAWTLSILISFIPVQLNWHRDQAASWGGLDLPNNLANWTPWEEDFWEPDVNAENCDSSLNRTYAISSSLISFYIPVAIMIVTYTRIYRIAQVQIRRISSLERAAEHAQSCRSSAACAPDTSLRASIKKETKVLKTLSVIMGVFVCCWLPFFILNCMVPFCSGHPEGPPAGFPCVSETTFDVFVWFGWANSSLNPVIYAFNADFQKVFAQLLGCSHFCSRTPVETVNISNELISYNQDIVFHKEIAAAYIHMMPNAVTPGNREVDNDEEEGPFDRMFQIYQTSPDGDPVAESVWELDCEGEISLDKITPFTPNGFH

Dopamine D5-β-arrestin Assay: DA + 50 μM PAM, Fold Change EC50 (D5)	Dopamine D1-β-arrestin Assay: DA + 50 μM PAM, Fold Change EC50 (human D1R)	Dopamine D4-β-arrestin Assay: DA + 50 μM PAM, Fold Change EC50 (D4R)	D5 Beta-Arrestin: DA + 50 μM PAM, Fold Change EC50 (D5)	D4 Beta-Arrestin: DA + 50 μM PAM, Fold Change EC50 (D4R)	SMILES	other results
35.49	1.33	0.8			Cn1c2ccccc2c(=O)c2c(=O)n(-c3ccccc3)c(-c3ccc(C(C)(C)C)cc3)nc21 [R1=Ph, R2=4-t-BuPh, R3=H, X=NMe]	
2.44	1.69	1.76			CC(C)c1nc2c(c(=O)c3ccccc3n2C)c(=O)n1-c1ccc(F)cc1 [R1=4-FPh, R2=i-Propyl, R3=H, X=NMe]	
					NC(=O)c1c(NC(=O)c2cccnc2)sc2c1CCCC2 [R4=NH2; R5=NHCO-3-pyridyl; R6=H]	DA + 50 μM PAM, Fold Change EC50 (D5): 1.03; DA + 50 μM PAM, Fold Change EC50 (human D1R): 1.88; DA + 50 μM PAM, Fold Change EC50 (D4R): 1.21
4.94	0.85	0.99			COc1ccc2c(=O)c3c(=O)n(-c4ccccc4)c(-c4ccc(C)cc4)nc3oc2c1 [R1=Ph, R2=4-MePh, R3=MeO, X=O]	
			0.77	0.61	COc1ccc(-n2c(C3CCCCC3)nc3c(c(=O)c4ccccc4n3C)c2=O)cc1Cl [Compound 4]	
			2.03	0.61	Cn1c2ccccc2c(=O)c2c(=O)n(-c3ccc(Cl)cc3)c(C3CCCCC3)nc21 [Compound 3]	
			1.51	1.33	COc1ccc(-n2c(C3CCCC3)nc3c(c(=O)c4ccccc4n3C)c2=O)cc1Cl [Compound 15]	
7.78	3.47	0.8			CCCc1nc2c(c(=O)c3ccccc3n2C)c(=O)n1C1CCCCCC1 [R1=Cycloheptyl, R2=n-Propyl, R3=H, X=NMe]	
					Cc1ccccc1NC(=O)c1c(NC(=O)c2ccncc2)sc2c1CCC(C)C2 (centres unmarked) [R4=NH-2-MePh; R5=NHCO-4-pyridyl; R6=Me]	DA + 50 μM PAM, Fold Change EC50 (D5): 0.83; DA + 50 μM PAM, Fold Change EC50 (human D1R): 2.09
			2.25	0.77	Cn1c2ccccc2c(=O)c2c(=O)n(-c3ccc(Cl)cc3)c(CC3CCCCC3)nc21 [Compound 25]	
3.81	14.1	0.95			CCCc1nc2c(c(=O)c3ccccc3n2C)c(=O)n1-c1cc(C)cc(C)c1 [R1=3,5-diMePh, R2=n-Propyl, R3=H, X=NMe]	
					CC1CCc2c(sc(NC(=O)c3ccc(O)cc3)c2C(N)=O)C1 (centres unmarked) [R4=NH2; R5=NHCO-4-HOPh; R6=Me]	DA + 50 μM PAM, Fold Change EC50 (D5): 0.87; DA + 50 μM PAM, Fold Change EC50 (human D1R): 1.76; DA + 50 μM PAM, Fold Change EC50 (D4R): 1.2
			0.81	0.47	CC(C)Cc1nc2c(c(=O)c3ccccc3n2C)c(=O)n1-c1ccc(Cl)cc1 [Compound 6]	PAM activity at the D5 receptor (D5): none of these analogs have PAM activity; fold change of dopamine EC50 for β-arrestin recruitment to D5R (D5): 0.8 fold
			0.80	0.57	CC(C)Cc1nc2c(c(=O)c3ccccc3n2C)c(=O)n1-c1cccc(Cl)c1 [Compound 7]	PAM activity at the D5 receptor (D5): none of these analogs have PAM activity; fold change of dopamine EC50 for β-arrestin recruitment to D5R (D5): 0.8 fold
6.74	1.32	1.24			Cn1c2ccccc2c(=O)c2c(=O)n(Cc3ccccc3)c(-c3ccc(F)cc3)nc21 [R1=Bn, R2=4-FPh, R3=H, X=NMe]	
			0.91	1.90	Cn1c2ccccc2c(=O)c2c(=O)n(-c3cccc(Cl)c3)c(C3CCCC3)nc21 [Compound 14]	

SMILES	Dopamine D5-β-arrestin Assay: DA + 50 μM PAM, Fold Change EC50 (D5)	Dopamine D1-β-arrestin Assay: DA + 50 μM PAM, Fold Change EC50 (human D1R)	Dopamine D4-β-arrestin Assay: DA + 50 μM PAM, Fold Change EC50 (D4R)	D5 Beta-Arrestin: DA + 50 μM PAM, Fold Change EC50 (D5)	D4 Beta-Arrestin: DA + 50 μM PAM, Fold Change EC50 (D4R)	other results
CCCCCc1nc2c(c(=O)c3ccccc3n2C)c(=O)n1C1CCCCCC1 [R1=Cycloheptyl, R2=n-Pentyl, R3=H, X=NMe]	3.89	1.12	1.46			
